# From patent US11033599B2, “Pennisetum extract, process for manufacturing the same and uses thereof” (METAL INDUSTRIES RESEARCH & DEVELOPMENT CENTRE, priority 2017, dated 2021)
# Test system: ovariectomized SD female rats
# Assay: In vivo anti-osteoporosis assay, digital medical image analysis of femurs (DXA / Micro-CT)
# Design: species or system rat
# Details: femur, OVX SD female rats, oral, 3 months, L 50 mg/kg, E2 estrogen 50 μg/kg, mean ± S.E.M., n=6
# Experimental: In this example, an in vivo assay for anti-osteoporosis activity of the Pennisetum extract was carried out on ovariectomized SD female rats in an animal feeding experiment mode, and the analysis of the femur bone mineral density and trabecular bone measurement was performed to confirm the pharmacological activity. The experimental method is as follows: (1) Test substance and control substances: The test group (L) uses the Pennisetum alcohol extract prepared in the foregoing Example 1 as the test substance. The blank control group (Control) and the ovariectomized group (OVX) were administered with ethanol as the control substance. The positive control group (E2) was administered with estrogen as the control substance. (2) Test animals: Test animals (including the test group, ovariectomized group and positive control group) were ovariectomized SD female rats, and the test on animals simulating the menopausal mode was started 2 weeks after oophorectomy. The blank control group was SD female rats without oophorectomy (only subjected to sham surgery). (3) Animal feeding management: The feeding environment was temperature 20° C. to 25° C.; humidity 65% to 80%; and lighting time 12 hours (monitoring environment every day). During the acclimation and test period, every 4 female rats were housed in an autoclaved plastic rearing cage (46 cm×25 cm×20 cm). Drinking water was treated with a reverse osmosis pure water machine, and then charged in a high temperature autoclaved plastic bottle to give the test animals for free drinking. (4) Acclimation: Ovariectomized SD female rats delivered by BioLASCO Co., Ltd. were acclimated for one week after entering the laboratory. During this period, clinical symptoms were observed every day, and healthy rats with normal weight gain were confirmed for the test. (5) Administration of test substance and control substances: After one week of acclimation, the experimental rats were orally administered with different doses of Pennisetum alcohol extract, ethanol or estrogen for 3 consecutive months, and then all the experimental rats were fasted one night before sacrifice to simulate the clinically applicable route of administration for the human body. During the 3 consecutive months of testing, according to the weight of the day before the administration, the test group was administered with a solution of the Pennisetum alcohol extract (10 mL/kg), which was prepared by dissolving 50 mg of Pennisetum alcohol extract in 10.0 mL of 10% ethanol; the blank control group and the ovariectomized group were administered with 10% ethanol (10.0 mL/kg); and the positive control group was administered with estrogen, which was dissolved in 10% ethanol (10.0 mL/kg). (6) The animal grouping was performed according to the body weight in an S-type order after the animals gained weight. The bone density (mass/volume) of the appropriate bone was measured by a dual energy X-ray absorptiometer (DXA) or micro-computerized tomography (Micro-CT, μ-CT; also used to measure the trabecular number). During the measurement, the DXA with two different energies was used to scan the inspection site, then the X-rays passing through the tested site was received by a scintillation detector, and then a computer analyzed the data to calculate the bone quality of the tested site. The records of the percentage of bone mass (bone volume/tissue volume), trabecular separation/spacing (Tb.Sp), trabecular number (Tb.N) and bone mineral density (BMD) in each group are shown in Table 5. It is represented by mean±standard error (S.E.M.) (n=6), and a, b, c, and d in the table represent statistical differences between the groups. The experimental data were statistically analyzed by one-way ANOVA. The statistical method of correlation index changes between the groups was statistically analyzed by Duncan test. […]
# [1] = listed as positive control group
substance,measurement,setting,value
estrogen [E2],Bone Mineral Density,,0.619 mg/cm^2
same,Percentage of Bone Mass (bone volume/tissue volume),,10.512%
same,Trabecular Number (Tb.N),,0.908 ± 1/mm
same,Trabecular Separation/Spacing (Tb.Sp),,1.103 mm
same,Percentage of Bone Mass (bone volume/tissue volume),[1],10.512±1.071%
same,Trabecular Number (Tb.N),[1],0.908±0.085 1/mm
